From ChEMBL document CHEMBL1154198, “Chemical genetics of Plasmodium falciparum” (Nature, 2010)

What was measured:
[1] = tested on: Plasmodium falciparum; test: ST_JUDE: Plasmodium falciparum 3D7 EC50 (uM) as measured by SYBR green dye; format: functional, organism-based
[2] = tested on: Plasmodium falciparum; test: ST_JUDE: Plasmodium falciparum K1 EC50 (uM) as measured by SYBR green dye; format: functional, organism-based

Row | SMILES | EC50 [1] | EC50 [2]
1 | CN(C)CCCNc1c2ccccc2nc2ccccc12 | 0.531 µM | 3.71 µM
2 | CN(C)c1ccc(Nc2c3ccccc3nc3ccccc23)cc1 | 1.46 µM | 1.11 µM
3 | CCN1CCN(Cc2c(O)ccc3c(=O)c(Oc4cc(C)cc(C)c4)c(C(F)(F)F)oc23)CC1 | 0.514 µM | 0.204 µM
4 | CCOc1ccc(Nc2cc(C)nc(Nc3ccc(OCC)cc3)n2)cc1 | > 15 µM | > 15 µM
5 | Cc1ccnc(NC(c2cccc(OCc3ccccc3)c2)c2ccc3cccnc3c2O)c1 (stereo not drawn) | 1.81 µM | 2.93 µM
6 | CCN1/C(=C/c2cccc[n+]2C)Sc2ccc(C)cc21 | 0.738 µM | 0.436 µM
7 | COc1ccccc1C1CC(c2ccccc2)=NN1C(=O)c1ccco1 (stereo not drawn) | 0.594 µM | 4.33 µM
8 | CN(C(=O)c1cc2c(s1)-c1ccccc1S(=O)(=O)C2)c1cccc(Cl)c1 | 0.711 µM | 1.05 µM
9 | COc1cccc(C2=C(C(C)=O)Sc3nncn3N2C(C)=O)c1 | 3.01 µM | 3.43 µM
10 | COc1ccc(N2CCN(C(=S)Nc3ccccc3Cl)CC2C)cc1 (stereo not drawn) | 1.4 µM | 3.56 µM
11 | Cc1ccc(-c2nc(C(=O)N(CCC#N)Cc3cccnc3)cs2)cc1F | 3.34 µM | 4.68 µM
12 | CCc1nnc2n1NC(c1ccccc1)C(C(=O)Nc1ccccc1Cl)S2 (stereo not drawn) | > 15 µM | > 15 µM
13 | CN(C)c1ccc(N2C(N)=NC(N)=NC2(C)C)cc1 | 0.0728 µM | > 15 µM
14 | CCN1CCN(CCCNC(=O)c2ccc3c(c2)sc2nc(-c4ccc(OC)cc4)cn23)CC1 | 0.577 µM | 1.56 µM
15 | CC(C)(C)c1ccc(C(=O)Nc2nc3ccccc3s2)cc1 | > 15 µM | > 15 µM
16 | CCc1ccc(C2C(C(=O)OC)=C(N)OC3=C2C(=O)CC(C)(C)C3)cc1 (stereo not drawn) | > 15 µM | > 15 µM
17 | Cc1cc(O)nc(-n2nc(C)cc2NC(=O)c2cc(C(F)(F)F)cc(C(F)(F)F)c2)n1 | > 15 µM | > 15 µM
18 | COC(=O)c1ccc(OCC2c3cc(OC)c(OC)cc3CCN2C(=O)Nc2ccccc2)cc1 (stereo not drawn) | 4.83 µM | 2.93 µM
19 | CC(C)(C)c1ccc(C(=O)Nc2c3c(nn2-c2cccc(Cl)c2)CSC3)cc1 | > 15 µM | > 15 µM
20 | CCOc1cccc(C2CC(=O)NC3=C2C(=O)CC(c2ccccc2Cl)C3)c1 (stereo not drawn) | 3.72 µM | 3.11 µM
21 | Cc1ccc2nc(-c3cccnc3)cc(C(=O)Nc3ccc(S(=O)(=O)NC(C)(C)C)cc3)c2c1 | > 15 µM | > 15 µM
22 | CCCOc1cc(S(=O)(=O)n2ccnc2)ccc1Cl | > 15 µM | > 15 µM

Row | SMILES | EC50 [1] | EC50 [2]
23 | Cc1cc(Br)ccc1OCCCCn1ccnc1 | > 15 µM | > 15 µM
24 | COc1ccc(C)cc1NC(=S)N1CCN(c2ccc([N+](=O)[O-])cc2)CC1 | 1.34 µM | 1.92 µM
25 | COC(=O)CNC(c1ccccc1)c1cc(Br)ccc1NC(=O)c1ccc(OC)cc1 (stereo not drawn) | 4.22 µM | 4.33 µM
26 | CCN1CCN(c2cc(C)c3cc(NC(=S)NCCCN4CC(C)CC(C)C4)ccc3n2)CC1 (stereo not drawn) | 5.34 µM | > 15 µM
27 | Cc1ccc2c(c1)N(C)/C(=C/c1cccc[n+]1CCO)S2 | 1.78 µM | 1.56 µM
28 | Nc1nc(Nc2ccc(Cl)c(Cl)c2)nc2ccccc12 | 2.22 µM | > 15 µM
29 | O=C(N/N=C/c1cc(Br)cc([N+](=O)[O-])c1O)NC12CC3CC(CC(C3)C1)C2 | > 15 µM | 0.959 µM
30 | COc1ccc(C(O)(CCC(C)C)C(CN2CCOCC2)c2ccc(Cl)cc2)cc1 (stereo not drawn) | 4.61 µM | 3.5 µM
31 | COC(=O)c1ccc(Nc2nc(NCc3ccccc3)c3ccccc3n2)cc1 | 1.11 µM | > 15 µM
32 | CCCC(=O)NC(c1ccc(OC)cc1)c1ccc2cccnc2c1O (stereo not drawn) | 1.65 µM | 2.65 µM
33 | Cc1ccc(S(=O)(=O)NCC(c2cccnc2)N2CCN(c3ccc(F)cc3)CC2)cc1 (stereo not drawn) | > 15 µM | 9.43 µM
34 | Cc1c(C(=O)Nc2ccc(Cl)cc2Cl)cccc1[N+](=O)[O-] | > 15 µM | > 15 µM
35 | Oc1c(CN2CCCCC2)cc(Br)c2cccnc12 | 3.42 µM | 2.32 µM
36 | COc1cc(CNc2cccc(Cl)c2)cc(I)c1OC | 3.96 µM | 4.1 µM
37 | COC(=O)c1c(S(=O)(=O)NCc2ccccc2)sc2c1CCN(Cc1ccc(OC)cc1)C2 | > 15 µM | > 15 µM
38 | Cc1c(Cl)cccc1NC(=O)Nc1ccc(Cl)c(Cl)c1 | 4.13 µM | > 15 µM
39 | Cc1ccc2nc3c(cc(C(=O)NC(C)c4ccccc4)c(=N)n3CC3CCCO3)c(=O)n2c1 (stereo not drawn) | > 15 µM | > 15 µM
40 | CCCN(CCC)CCCNC(=O)c1cc2c(-c3cccc(OC)c3)nn(C)c2s1 | 2.15 µM | 7.45 µM
41 | CCCC1=Nc2cc(C(=O)N3CCN(C(=O)OCC)CC3)ccc2Sc2ccc(C)cc21 | > 15 µM | > 15 µM
42 | Oc1ccc(Br)cc1CN1CCN(Cc2cccc(Cl)c2)CC1 | 1.79 µM | 0.338 µM
43 | O=C(Nc1cccc(Cl)c1)C1c2ccccc2C(=O)N(C2CCCC2)C1c1cccs1 (stereo not drawn) | 0.297 µM | 0.326 µM
44 | COc1ccc(-c2cc(=O)oc3c4c(ccc23)OCN(Cc2ccc(F)cc2)C4)cc1 | 5.21 µM | 1.06 µM
